This experiment concerns the target T1, ArnT (undecaprenyl phosphate-alpha-4-amino-4-deoxy-L-arabinose arabinosyl transferase) (Pseudomonas aeruginosa, UniProt Q02R27).
T1 sequence (Q02R27 1-549): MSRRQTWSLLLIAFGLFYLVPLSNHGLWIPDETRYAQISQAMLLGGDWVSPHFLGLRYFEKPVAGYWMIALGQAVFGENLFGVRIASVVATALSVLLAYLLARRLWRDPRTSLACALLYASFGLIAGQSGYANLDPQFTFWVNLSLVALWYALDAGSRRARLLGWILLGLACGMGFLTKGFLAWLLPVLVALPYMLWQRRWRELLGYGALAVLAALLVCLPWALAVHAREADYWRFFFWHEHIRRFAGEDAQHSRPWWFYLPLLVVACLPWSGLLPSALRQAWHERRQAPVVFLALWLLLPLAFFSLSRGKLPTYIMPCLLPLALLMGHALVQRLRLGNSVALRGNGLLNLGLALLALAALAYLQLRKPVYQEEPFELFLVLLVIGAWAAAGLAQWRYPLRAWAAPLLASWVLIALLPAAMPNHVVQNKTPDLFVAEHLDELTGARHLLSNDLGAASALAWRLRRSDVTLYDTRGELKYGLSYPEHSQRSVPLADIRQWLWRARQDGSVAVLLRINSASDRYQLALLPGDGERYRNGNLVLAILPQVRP
The experiment is described as follows: intrinsic tryptophan fluorescence quenching titration, one-site binding fit.

For orientation: Kd means the free concentration of one partner at which half of the binding sites on the other are occupied at equilibrium, for simple one-to-one binding. Low values mean a tighter complex, high ones a looser complex. The compound `C[C@@]12CC[C@@H]3[C@@](CC[C@@H]4[C@@](C)(COC(=O)C(=O)O)CCC[C@]43C)(CC1)C2` [FDO-H] yielded a dissociation constant Kd of approximately 10 µM.
